In patent US7256208B2 (priority 2003, dated 2007):

Experiments:
[1] = target: T1, AR (Rattus norvegicus, UniProt P15207)
T1 sequence (P15207 1-902): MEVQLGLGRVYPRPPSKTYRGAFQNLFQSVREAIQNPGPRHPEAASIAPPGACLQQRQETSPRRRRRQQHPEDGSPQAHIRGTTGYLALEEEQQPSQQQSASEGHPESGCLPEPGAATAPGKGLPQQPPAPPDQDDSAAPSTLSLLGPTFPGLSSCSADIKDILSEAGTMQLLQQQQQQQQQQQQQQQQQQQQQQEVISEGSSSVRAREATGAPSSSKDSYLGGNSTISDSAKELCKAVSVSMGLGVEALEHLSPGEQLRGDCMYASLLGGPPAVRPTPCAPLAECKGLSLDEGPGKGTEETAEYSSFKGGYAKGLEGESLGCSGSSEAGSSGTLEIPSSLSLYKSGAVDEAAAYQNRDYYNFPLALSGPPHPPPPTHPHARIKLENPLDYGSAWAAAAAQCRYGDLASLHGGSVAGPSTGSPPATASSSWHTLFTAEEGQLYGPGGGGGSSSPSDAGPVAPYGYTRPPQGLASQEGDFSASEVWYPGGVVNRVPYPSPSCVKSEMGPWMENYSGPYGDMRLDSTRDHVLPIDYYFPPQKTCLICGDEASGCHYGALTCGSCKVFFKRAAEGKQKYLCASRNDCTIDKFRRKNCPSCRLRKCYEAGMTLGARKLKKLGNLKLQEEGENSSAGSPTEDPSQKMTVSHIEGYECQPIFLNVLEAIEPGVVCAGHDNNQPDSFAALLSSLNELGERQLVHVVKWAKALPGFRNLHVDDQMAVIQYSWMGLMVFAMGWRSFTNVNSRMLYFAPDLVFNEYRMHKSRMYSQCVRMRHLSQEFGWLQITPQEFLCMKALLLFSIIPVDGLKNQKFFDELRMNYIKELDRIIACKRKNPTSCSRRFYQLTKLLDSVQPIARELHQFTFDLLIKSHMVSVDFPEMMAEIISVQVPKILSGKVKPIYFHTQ
Source text: The activity of compounds of the present invention as AR agonists was investigated in an immature male rat model, a recognized test of anabolic effects in muscle and sustaining effects in sex organs for a given compound, as described in L. G. Hershberger et al., Proc. Soc. […] Biol. Med., 83, 175 (1953); B. L. Beyler et al, “Methods for evaluating anabolic and catabolic agents in laboratory animals”, J. Amer. Med. Women's Ass., 23, 708 (1968); H. Fukuda et al., “Investigations of the levator ani muscle as an anabolic steroid assay”, Nago Dai. Yak. Ken. Nem. 14, 84 (1966) the disclosures of which are herein incorporated by reference.
The basis of this assay lies in the well-defined action of androgenic agents on the maintenance and growth of muscle tissues and sexual accessory organs in animals and man. […] J. Anat. […] Ital. Biol. Sper. […] II. […] Ital. Biol. Sper. 42, 1600 (1966); A. Boris et al., Steroids 15, 61 (1970). As described above, the effects of androgens on maintenance of male sexual accessory organs, such as the prostate and seminal vesicles, is well described. Castration results in rapid involution and atrophy of the prostate and seminal vesicles. This effect can be reversed by exogenous addition of androgens. […]

[2] = system: wild type AR (MDA 453 cells); settings: read-out: Kd for [3H]-DHT, Scatchard analysis
Procedure: For the whole-cell binding assay, human LNCaP cells (T877A mutant AR) or MDA 453 (wild type AR) in 96-well microtiter plates containing RPMI 1640 or DMEM supplemented with 10% charcoal stripped CA-FBS (Cocaleco Biologicals) respectively, were incubated at 37° C. to remove any endogenous ligand that might be complexed with the receptor in the cells.
For the saturation analysis, the difference between the total binding and the non-specific binding, was defined as specific binding. […] See e.g. D. Rodbard, Mathematics and statistics of ligand assays: an illustrated guide: In: J. Langon and J. J. Clapp, eds., Ligand Assay, Masson Publishing U.S.A., Inc., New York, pp. 45-99, (1981), the disclosure of which is herein incorporated by reference.
Two replicates were used for each sample.

N#Cc1ccc(N2C(=O)N/C(=C\c3ccc(O)cc3)C2=O)c2ccccc12
melting point: > 275 °C

N#Cc1ccc(N2C(=O)N/C(=C\c3ccccc3O)C2=O)c2ccccc12
melting point: 251 to 252 °C

CCC(=O)O[C@H]1CC[C@H]2[C@@H]3CCC4=CC(=O)CC[C@]4(C)[C@H]3CC[C@]12C [TP, testosterone propionate]
potency relative to free T ([1]; TP versus free T): 10-30 fold | EC50 (increase in organ weight) ([1]; castrated rats, dosing for 3 days): ~0.03 mg

tritiated dihydrotestosterone [[^3H]-DHT]
Kd [2]: 0.7 nM
